Consider one molecule from patent publication US20250241971A1 (priority 2022, published 2025).

The subject of one data set is Ruminants. Particulars: in feed; cited from earlier work.
Data set [1] concerns broiler chickens. Particulars: in vivo.
Data set [2] concerns broiler chickens. Particulars: in vivo. The source holds these as a separate data set.
For a further data set, the system named is Poultry. The following applies: in vivo; cited from earlier work.
In another data set the test system is il8 and ifnγ genes. The following applies: in vivo.

Take `CC1=C[C@H]2O[C@@H]3[C@H](O)C[C@](C)([C@@]2(CO)[C@H](O)C1=O)[C@]31CO1` [DON, Deoxynivalenol]: the “feed concentration up to which little sensitivity appears” value in the data set with Ruminants is reported as “up to 12 mg/kg of feed”. Further, in the data set with broiler chickens [1], the “size (height) of intestinal villi of the jejunum” value is “induces a reduction in the size of the intestinal villi of the jejunum”. In the data set with broiler chickens [2], the “lesions in the liver” value is recorded as “induces a strong increase in lesions in the liver” and the “macroscopic appearance of the liver” value was “appears paler, slightly yellower; a hemorrhagic lesion is clearly visible”. For the same molecule, the “concentration from which first zootechnical effects are observed” value in the data set with Poultry is recorded as ≥ 5 mg of DON per kilogram of feed. The “number of lesions on the tissue” value in the data set on pig jejunum explants is listed as “increases the number of lesions on the tissue”. In addition, the “decrease in villus length” value in the data set with pig jejunum explants (pig) is listed as “approximately 35%”. Also, in the data set with il8 and ifnγ genes, the “il8 mRNA expression in jejunum” value is on record as “strong increase” and the “interferon gamma (ifnγ) mRNA expression in jejunum” value is “strong increase”.
